System: T47D
Assay: Cytotoxicity against human T47D cells assessed as effect on cell growth at 10 uM incubated for 48 hrs by sulforhodamine B assay
Assay type: cell-based
Conditions: not given

Compound	Activity
CN(C)/C=C1\C[C@H]2C(=O)N(Cc3ccc(Cl)cc3Cl)C(N(C)C)N2C1=O (stereo not given in full)	Non-Toxic
O=C(NCc1ccc(Cl)cc1Cl)[C@@H]1CCC(=O)N1c1ccc(Cl)cc1Cl	Non-Toxic
O=C(NCc1ccc(Cl)cc1Cl)[C@@H]1CCC(=O)N1c1ccsc1	Non-Toxic

System: SNB-75
Assay: Cytotoxicity against human SNB75 cells assessed as effect on cell growth at 10 uM incubated for 48 hrs by sulforhodamine B assay
Assay type: cell-based
Conditions: snb-75, 48 h

Compound	Activity
CN(C)/C=C1\C[C@H]2C(=O)N(Cc3ccc(Cl)cc3Cl)C(N(C)C)N2C1=O (stereo not given in full)	Non-Toxic
O=C(NCc1ccc(Cl)cc1Cl)[C@@H]1CCC(=O)N1c1ccc(Cl)cc1Cl	Non-Toxic
O=C(NCc1ccc(Cl)cc1Cl)[C@@H]1CCC(=O)N1c1ccsc1	Non-Toxic

System: NCI-H322M
Assay: Cytotoxicity against human NCI-H322M cells assessed as effect on cell growth at 10 uM incubated for 48 hrs by sulforhodamine B assay
Assay type: cell-based
Conditions: not given

Compound	Activity
CN(C)/C=C1\C[C@H]2C(=O)N(Cc3ccc(Cl)cc3Cl)C(N(C)C)N2C1=O (stereo not given in full)	Non-Toxic
O=C(NCc1ccc(Cl)cc1Cl)[C@@H]1CCC(=O)N1c1ccc(Cl)cc1Cl	Non-Toxic
O=C(NCc1ccc(Cl)cc1Cl)[C@@H]1CCC(=O)N1c1ccsc1	Non-Toxic

System: IGROV-1
Assay: Cytotoxicity against human IGROV1 cells assessed as effect on cell growth at 10 uM incubated for 48 hrs by sulforhodamine B assay
Assay type: cell-based
Conditions: igrov-1, 48 h

Compound	Activity
CN(C)/C=C1\C[C@H]2C(=O)N(Cc3ccc(Cl)cc3Cl)C(N(C)C)N2C1=O (stereo not given in full)	Non-Toxic
O=C(NCc1ccc(Cl)cc1Cl)[C@@H]1CCC(=O)N1c1ccc(Cl)cc1Cl	Non-Toxic
O=C(NCc1ccc(Cl)cc1Cl)[C@@H]1CCC(=O)N1c1ccsc1	Non-Toxic

System: SNB-19
Assay: Cytotoxicity against human SNB19 cells assessed as effect on cell growth at 10 uM incubated for 48 hrs by sulforhodamine B assay
Assay type: cell-based
Conditions: snb-19, 48 h

Compound	Activity
CN(C)/C=C1\C[C@H]2C(=O)N(Cc3ccc(Cl)cc3Cl)C(N(C)C)N2C1=O (stereo not given in full)	Non-Toxic
O=C(NCc1ccc(Cl)cc1Cl)[C@@H]1CCC(=O)N1c1ccc(Cl)cc1Cl	Non-Toxic
O=C(NCc1ccc(Cl)cc1Cl)[C@@H]1CCC(=O)N1c1ccsc1	Non-Toxic

System: HCT-116
Assay: Cytotoxicity against human HCT116 cells assessed as effect on cell growth at 10 uM incubated for 48 hrs by sulforhodamine B assay
Assay type: cell-based
Conditions: hct-116, 48 h

Compound	Activity
CN(C)/C=C1\C[C@H]2C(=O)N(Cc3ccc(Cl)cc3Cl)C(N(C)C)N2C1=O (stereo not given in full)	Non-Toxic
O=C(NCc1ccc(Cl)cc1Cl)[C@@H]1CCC(=O)N1c1ccc(Cl)cc1Cl	Non-Toxic
O=C(NCc1ccc(Cl)cc1Cl)[C@@H]1CCC(=O)N1c1ccsc1	Non-Toxic

System: U-251
Assay: Cytotoxicity against human U251 cells assessed as effect on cell growth at 10 uM incubated for 48 hrs by sulforhodamine B assay
Assay type: cell-based
Conditions: u-251, 48 h

Compound	Activity
CN(C)/C=C1\C[C@H]2C(=O)N(Cc3ccc(Cl)cc3Cl)C(N(C)C)N2C1=O (stereo not given in full)	Non-Toxic
O=C(NCc1ccc(Cl)cc1Cl)[C@@H]1CCC(=O)N1c1ccc(Cl)cc1Cl	Non-Toxic
O=C(NCc1ccc(Cl)cc1Cl)[C@@H]1CCC(=O)N1c1ccsc1	Non-Toxic

System: HCC 2998
Assay: Cytotoxicity against human HCC2998 cells assessed as effect on cell growth at 10 uM incubated for 48 hrs by sulforhodamine B assay
Assay type: cell-based
Conditions: hcc 2998, 48 h

Compound	Activity
CN(C)/C=C1\C[C@H]2C(=O)N(Cc3ccc(Cl)cc3Cl)C(N(C)C)N2C1=O (stereo not given in full)	Non-Toxic
O=C(NCc1ccc(Cl)cc1Cl)[C@@H]1CCC(=O)N1c1ccc(Cl)cc1Cl	Non-Toxic
O=C(NCc1ccc(Cl)cc1Cl)[C@@H]1CCC(=O)N1c1ccsc1	Non-Toxic

System: TK-10
Assay: Cytotoxicity against human TK10 cells assessed as effect on cell growth at 10 uM incubated for 48 hrs by sulforhodamine B assay
Assay type: cell-based
Conditions: tk-10, 48 h

Compound	Activity
CN(C)/C=C1\C[C@H]2C(=O)N(Cc3ccc(Cl)cc3Cl)C(N(C)C)N2C1=O (stereo not given in full)	Non-Toxic
O=C(NCc1ccc(Cl)cc1Cl)[C@@H]1CCC(=O)N1c1ccc(Cl)cc1Cl	Non-Toxic
O=C(NCc1ccc(Cl)cc1Cl)[C@@H]1CCC(=O)N1c1ccsc1	Non-Toxic

System: HT-29
Assay: Cytotoxicity against human HT-29 cells assessed as effect on cell growth at 10 uM incubated for 48 hrs by sulforhodamine B assay
Assay type: cell-based
Conditions: ht-29, 48 h

Compound	Activity
CN(C)/C=C1\C[C@H]2C(=O)N(Cc3ccc(Cl)cc3Cl)C(N(C)C)N2C1=O (stereo not given in full)	Non-Toxic
O=C(NCc1ccc(Cl)cc1Cl)[C@@H]1CCC(=O)N1c1ccc(Cl)cc1Cl	Non-Toxic
O=C(NCc1ccc(Cl)cc1Cl)[C@@H]1CCC(=O)N1c1ccsc1	Non-Toxic

System: HOP-92
Assay: Cytotoxicity against human HOP92 cells assessed as effect on cell growth at 10 uM incubated for 48 hrs by sulforhodamine B assay
Assay type: cell-based
Conditions: hop-92, 48 h

Compound	Activity
CN(C)/C=C1\C[C@H]2C(=O)N(Cc3ccc(Cl)cc3Cl)C(N(C)C)N2C1=O (stereo not given in full)	Non-Toxic
O=C(NCc1ccc(Cl)cc1Cl)[C@@H]1CCC(=O)N1c1ccc(Cl)cc1Cl	Non-Toxic
O=C(NCc1ccc(Cl)cc1Cl)[C@@H]1CCC(=O)N1c1ccsc1	Non-Toxic

System: NCI-H522
Assay: Cytotoxicity against human NCI-H522 cells assessed as effect on cell growth at 10 uM incubated for 48 hrs by sulforhodamine B assay
Assay type: cell-based
Conditions: nci-h522, 48 h

Compound	Activity
CN(C)/C=C1\C[C@H]2C(=O)N(Cc3ccc(Cl)cc3Cl)C(N(C)C)N2C1=O (stereo not given in full)	Non-Toxic
O=C(NCc1ccc(Cl)cc1Cl)[C@@H]1CCC(=O)N1c1ccc(Cl)cc1Cl	Non-Toxic
O=C(NCc1ccc(Cl)cc1Cl)[C@@H]1CCC(=O)N1c1ccsc1	Non-Toxic

System: Malme-3M
Assay: Cytotoxicity against human MALME-3M cells assessed as effect on cell growth at 10 uM incubated for 48 hrs by sulforhodamine B assay
Assay type: cell-based
Conditions: not given

Compound	Activity
CN(C)/C=C1\C[C@H]2C(=O)N(Cc3ccc(Cl)cc3Cl)C(N(C)C)N2C1=O (stereo not given in full)	Non-Toxic
O=C(NCc1ccc(Cl)cc1Cl)[C@@H]1CCC(=O)N1c1ccc(Cl)cc1Cl	Non-Toxic
O=C(NCc1ccc(Cl)cc1Cl)[C@@H]1CCC(=O)N1c1ccsc1	Non-Toxic

System: UACC-62
Assay: Cytotoxicity against human UACC62 cells assessed as effect on cell growth at 10 uM incubated for 48 hrs by sulforhodamine B assay
Assay type: cell-based
Conditions: uacc-62, 48 h

Compound	Activity
CN(C)/C=C1\C[C@H]2C(=O)N(Cc3ccc(Cl)cc3Cl)C(N(C)C)N2C1=O (stereo not given in full)	Non-Toxic
O=C(NCc1ccc(Cl)cc1Cl)[C@@H]1CCC(=O)N1c1ccc(Cl)cc1Cl	Non-Toxic
O=C(NCc1ccc(Cl)cc1Cl)[C@@H]1CCC(=O)N1c1ccsc1	Non-Toxic

System: MDA-MB-468
Assay: Cytotoxicity against human MDA-MB-468 cells assessed as effect on cell growth at 10 uM incubated for 48 hrs by sulforhodamine B assay
Assay type: cell-based
Conditions: mda-mb-468, 48 h

Compound	Activity
CN(C)/C=C1\C[C@H]2C(=O)N(Cc3ccc(Cl)cc3Cl)C(N(C)C)N2C1=O (stereo not given in full)	Non-Toxic
O=C(NCc1ccc(Cl)cc1Cl)[C@@H]1CCC(=O)N1c1ccc(Cl)cc1Cl	Non-Toxic
O=C(NCc1ccc(Cl)cc1Cl)[C@@H]1CCC(=O)N1c1ccsc1	Non-Toxic

System: COLO 205
Assay: Cytotoxicity against human COLO205 cells assessed as effect on cell growth at 10 uM incubated for 48 hrs by sulforhodamine B assay
Assay type: cell-based
Conditions: colo 205, 48 h

Compound	Activity
CN(C)/C=C1\C[C@H]2C(=O)N(Cc3ccc(Cl)cc3Cl)C(N(C)C)N2C1=O (stereo not given in full)	Non-Toxic
O=C(NCc1ccc(Cl)cc1Cl)[C@@H]1CCC(=O)N1c1ccc(Cl)cc1Cl	Non-Toxic
O=C(NCc1ccc(Cl)cc1Cl)[C@@H]1CCC(=O)N1c1ccsc1	Non-Toxic

System: PC-3
Assay: Cytotoxicity against human PC3 cells assessed as effect on cell growth at 10 uM incubated for 48 hrs by sulforhodamine B assay
Assay type: cell-based
Conditions: pc-3, 48 h

Compound	Activity
CN(C)/C=C1\C[C@H]2C(=O)N(Cc3ccc(Cl)cc3Cl)C(N(C)C)N2C1=O (stereo not given in full)	Non-Toxic
O=C(NCc1ccc(Cl)cc1Cl)[C@@H]1CCC(=O)N1c1ccc(Cl)cc1Cl	Non-Toxic
O=C(NCc1ccc(Cl)cc1Cl)[C@@H]1CCC(=O)N1c1ccsc1	Non-Toxic

System: NCI-H23
Assay: Cytotoxicity against human NCI-H23 cells assessed as effect on cell growth at 10 uM incubated for 48 hrs by sulforhodamine B assay
Assay type: cell-based
Conditions: nci-h23, 48 h

Compound	Activity
CN(C)/C=C1\C[C@H]2C(=O)N(Cc3ccc(Cl)cc3Cl)C(N(C)C)N2C1=O (stereo not given in full)	Non-Toxic
O=C(NCc1ccc(Cl)cc1Cl)[C@@H]1CCC(=O)N1c1ccc(Cl)cc1Cl	Non-Toxic
O=C(NCc1ccc(Cl)cc1Cl)[C@@H]1CCC(=O)N1c1ccsc1	Non-Toxic

System: NCI/ADR-RES
Assay: Cytotoxicity against human NCI/ADR-RES cells assessed as effect on cell growth at 10 uM incubated for 48 hrs by sulforhodamine B assay
Assay type: cell-based
Conditions: not given

Compound	Activity
CN(C)/C=C1\C[C@H]2C(=O)N(Cc3ccc(Cl)cc3Cl)C(N(C)C)N2C1=O (stereo not given in full)	Non-Toxic
O=C(NCc1ccc(Cl)cc1Cl)[C@@H]1CCC(=O)N1c1ccc(Cl)cc1Cl	Non-Toxic
O=C(NCc1ccc(Cl)cc1Cl)[C@@H]1CCC(=O)N1c1ccsc1	Non-Toxic

System: OVCAR-8
Assay: Cytotoxicity against human OVCAR8 cells assessed as effect on cell growth at 10 uM incubated for 48 hrs by sulforhodamine B assay
Assay type: cell-based
Conditions: ovcar-8, 48 h

Compound	Activity
CN(C)/C=C1\C[C@H]2C(=O)N(Cc3ccc(Cl)cc3Cl)C(N(C)C)N2C1=O (stereo not given in full)	Non-Toxic
O=C(NCc1ccc(Cl)cc1Cl)[C@@H]1CCC(=O)N1c1ccc(Cl)cc1Cl	Non-Toxic
O=C(NCc1ccc(Cl)cc1Cl)[C@@H]1CCC(=O)N1c1ccsc1	Non-Toxic

— ChEMBL document CHEMBL4627246, “Pyroglutamide-Based P2X7 Receptor Antagonists Targeting Inflammatory Bowel Disease” (J Med Chem, 2020)
